Here are results for 27 compounds from US7276508B2, “Indole derivatives useful for the treatment of CNS disorders” (H. Lundbeck A/S, priority 2000, dated 2007).

Broadly, the IC50 is the concentration that inhibits the measured activity by half. The term inhibition denotes the share of the control response that was lost under treatment.

The first assay addresses T1, human cloned dopamine D4.2 receptors (Homo sapiens, UniProt P21917, DEL265-296).
T1 construct: expressed in transfected cells; host or cells: CHO cells (membranes)
T1 sequence (P21917 with tags, fused parts or gaps DEL265-296): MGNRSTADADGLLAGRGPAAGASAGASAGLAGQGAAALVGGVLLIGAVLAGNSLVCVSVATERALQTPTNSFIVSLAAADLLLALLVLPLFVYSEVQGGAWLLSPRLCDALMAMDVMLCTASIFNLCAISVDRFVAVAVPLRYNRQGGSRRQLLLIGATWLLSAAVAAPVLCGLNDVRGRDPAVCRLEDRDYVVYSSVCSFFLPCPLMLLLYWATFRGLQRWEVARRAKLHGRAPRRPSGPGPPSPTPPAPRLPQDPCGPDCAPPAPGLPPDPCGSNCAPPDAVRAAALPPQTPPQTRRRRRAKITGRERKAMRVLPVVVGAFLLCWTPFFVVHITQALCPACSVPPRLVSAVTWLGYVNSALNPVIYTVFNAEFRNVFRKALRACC
In words: Inhibition of the binding of [3H]YM-09151-2 to human dopamine D4 receptors. The following applies: [3H]YM-09151-2 0.06 nM, membranes of CHO cells; read-out: D4-bind. IC50. On the procedure: Inhibition of the Binding of [^3H]YM-09151-2 to Human Dopamine D4 Receptors
By this method, the inhibition by drugs of the binding of [^3H]YM-09151-2 (0.06 nM) to membranes of human cloned dopamine D4.2 receptors expressed in CHO-cells is determined in vitro. Method modified from NEN Life Science Products, Inc., technical data certificate PC2533-10/96.
`Fc1ccc2[nH]cc(C3=CCN(CCCCN4CCCc5ccccc54)CC3)c2c1` [Compound 9m, 5-Fluoro-3-{1-[4-(3,4-dihydro-2H-quinolin-1-yl)butan-1-yl]-3,6-dihydro-2H-pyridin-4-yl}-1H-indole]: the IC50 was determined as 17 nM.
As to `O=C1CCc2ccccc2N1CCCCCN1CC=C(c2c[nH]c3ccc(F)cc23)CC1` [Compound 3c, 5-Fluoro-3-{1-[5-(2-oxo-3,4-dihydro-2H-quinolin-1-yl)pentan-1-yl]-3,6-dihydro-2H-pyridin-4-yl}-1H-indole], the IC50 turned out to be 15 nM.
Same read-out and setting: the value for `O=C1CCc2ccccc2N1CCCCN1CCC(c2c[nH]c3ccc(F)cc23)CC1` [Compound 4, 5-Fluoro-3-{1-[4-(2-oxo-3,4-dihydro-2H-quinolin-1-yl)butan-1-yl]piperidin-4-yl}-1H-indole] was 4.8 nM; that for `O=C1COc2ccccc2N1CCCCN1CCC(c2c[nH]c3ccc(F)cc23)CC1` [Compound 2g, 5-Fluoro-3-{1-[4-(3-oxo-3,4-dihydro-2H-1,4-benzoxazin-4-yl)butan-1-yl]piperidin-4-yl}-1H-indole] was 7.5 nM.
The same measure, in the same setting: the value for `O=C1CCc2ccccc2N1CCCCCN1CCC(c2c[nH]c3ccc(F)cc23)CC1` [Compound 2b, 5-Fluoro-3-{1-[5-(2-oxo-3,4-dihydro-2H-quinolin-1-yl)pentan-1-yl]piperidin-4-yl}-1H-indole] was 12 nM.
As for `O=C1CCc2ccccc2N1CCCCCN1CCC(c2c[nH]c3ccc(Cl)cc23)CC1` [Compound 2e, 5-Chloro-3-{1-[5-(2-oxo-3,4-dihydro-2H-quinolin-1-yl)pentan-1-yl]piperidin-4-yl}-1H-indole], the IC50 turned out to be 12 nM.
Turning to `O=C1CCc2ccccc2N1CCCN1CCC(c2c[nH]c3ccc(Cl)cc23)CC1` [Compound 2c, 5-Chloro-3-{1-[3-(2-oxo-3,4-dihydro-2H-quinolin-1-yl)propan-1-yl]piperidin-4-yl}-1H-indole], the IC50 is 0.69 nM.
Take `O=C1CCc2ccccc2N1CCCCN1CCC(c2c[nH]c3ccc(Cl)cc23)CC1` [Compound 2d, 5-Chloro-3-{1-[4-(2-oxo-3,4-dihydro-2H-quinolin-1-yl)butan-1-yl]piperidin-4-yl}-1H-indole]: the IC50 stood at 8 nM.
On to `Fc1ccc2[nH]cc(C3=CCN(CCCN4CCCc5ccccc54)CC3)c2c1` [Compound 9l, 5-Fluoro-3-{1-[3-(3,4-dihydro-2H-quinolin-1-yl)propan-1-yl]-3,6-dihydro-2H-pyridin-4-yl}-1H-indole], for which the IC50 was 0.51 nM.
On to `O=C1CCc2ccccc2N1CCCN1CC=C(c2c[nH]c3ccc(F)cc23)CC1` [Compound 3a, 5-Fluoro-3-{1-[3-(2-oxo-3,4-dihydro-2H-quinolin-1-yl)propan-1-yl]-3,6-dihydro-2H-pyridin-4-yl}-1H-indole], for which the IC50 was 0.71 nM.
The same measure, in the same setting: next, `O=C1CCc2ccccc2N1CCCCN1CC=C(c2c[nH]c3ccc(F)cc23)CC1` [Compound 3b, 5-Fluoro-3-{1-[4-(2-oxo-3,4-dihydro-2H-quinolin-1-yl)butan-1-yl]-3,6-dihydro-2H-pyridin-4-yl}-1H-indole]: 5 nM; `Fc1ccc2[nH]cc(C3=CCN(CCCCCN4CCCc5ccccc54)CC3)c2c1` [Compound 9n, 5-Fluoro-3-{1-[5-(3,4-dihydro-2H-quinolin-1-yl)pentan-1-yl]-3,6-dihydro-2H-pyridin-4-yl}-1H-indole]: 53 nM.
With `O=C1CCc2ccccc2N1CCCN1CCC(c2c[nH]c3ccc(F)cc23)CC1` [Compound 2a, 5-Fluoro-3-{1-[3-(2-oxo-3,4-dihydro-2H-quinolin-1-yl)propan-1-yl]piperidin-4-yl}-1H-indole], the IC50 came to 0.58 nM.

The assay is the same for the next values; noted with them: at 50 nM compound; [3H]YM-09151-2 0.06 nM, membranes of CHO cells.
In the case of `O=C1c2ccccc2CCN1CCCCN1CCC(c2c[nH]c3ccc(F)cc23)CC1` [Compound 1c], the “D4-bind. % inhibition of binding at 50 nM” value is 95%.
Still for that read-out and setting: the value for `O=C(CCCCN1CCC(c2c[nH]c3c(Cl)cccc23)CC1)N1CCc2ccccc2C1` [Compound 10l] was 82%; that for `O=C1c2ccccc2CCN1CCCN1CCC(c2c[nH]c3ccc(F)cc23)CC1` [Compound 1b] was 97%.

The same assay, now with this note: at 50 nM compound; [3H]YM-09151-2 0.06 nM, membranes of CHO cells; read-out: D4-bind. % inhibition of binding at 50 nM.
For `O=C(CCCCCN1CCC(c2c[nH]c3cccc(Cl)c23)CC1)N1CCc2ccccc2C1` [Compound 10f, 4-Chloro-3-{1-[6-(3,4-dihydro-1H-isoquinolin-2-yl)-6-oxohexan-1-yl]piperidin-4-yl}-1H-indole], the inhibition at 0.05 µM worked out at 17%.
For the compound `O=C(CCCCCN1CCC(c2c[nH]c3cccc(F)c23)CC1)N1CCc2ccccc2C1` [Compound 10c, 4-Fluoro-3-{1-[6-(3,4-dihydro-1H-isoquinolin-2-yl)-6-oxohexan-1-yl]piperidin-4-yl}-1H-indole], the inhibition at 0.05 µM is 21%.
In the case of `O=C1CCc2ccccc2N1CCN1CCC(c2c[nH]c3ccc(F)cc23)CC1` [Compound 1a, 5-Fluoro-3-{1-[2-(2-oxo-3,4-dihydro-2H-quinolin-1-yl)ethyl]piperidin-4-yl}-1H-indole], the inhibition at 0.05 µM worked out at 92%.
Take `O=C(CCCCCN1CCC(c2c[nH]c3c(Cl)cccc23)CC1)N1CCc2ccccc2C1` [Compound 10m, 7-Chloro-3-{1-[6-(3,4-dihydro-1H-isoquinolin-2-yl)-6-oxohexan-1-yl]piperidin-4-yl}-1H-indole]: the inhibition at 0.05 µM is 69%.
Consider `O=C(CCCCCN1CCC(c2c[nH]c3cc(Cl)ccc23)CC1)N1CCc2ccccc2C1` [Compound 10j, 6-Chloro-3-{1-[6-(3,4-dihydro-1H-isoquinolin-2-yl)-6-oxohexan-1-yl]piperidin-4-yl}-1H-indole], for which the inhibition at 0.05 µM came to 70%.
`O=C(CCCCCN1CCC(c2c[nH]c3ccc(F)cc23)CC1)N1CCc2ccccc2C1` [Compound 10h, 5-Fluoro-3-{1-[6-(3,4-dihydro-1H-isoquinolin-2-yl)-6-oxohexan-1-yl]piperidin-4-yl}-1H-indole]: the inhibition at 0.05 µM stood at 50%.
In the case of `O=C(CCN1CCC(c2c[nH]c3cc(Cl)ccc23)CC1)N1CCc2ccccc2C1` [Compound 10i, 6-Chloro-3-{1-[3-(3,4-dihydro-1H-isoquinolin-2-yl)-3-oxopropan-1-yl]piperidin-4-yl}-1H-indole], the inhibition at 0.05 µM was 94%.
Consider `O=C(CCCN1CCC(c2c[nH]c3c(Cl)cccc23)CC1)N1CCc2ccccc2C1` [Compound 10k, 7-Chloro-3-{1-[4-(3,4-dihydro-1H-isoquinolin-2-yl)-4-oxobutan-1-yl]piperidin-4-yl}-1H-indole], for which the inhibition at 0.05 µM came to 95%.
For `O=C1CCc2ccccc2N1CCCCN1CCC(c2c[nH]c3c(Cl)cccc23)CC1` [Compound 2f, 7-Chloro-3-{1-[4-(2-oxo-3,4-dihydro-2H-quinolin-1-yl)butan-1-yl]piperidin-4-yl}-1H-indole], the inhibition at 0.05 µM stood at 78%.
`O=C(CCCCN1CCC(c2c[nH]c3ccc(F)cc23)CC1)N1CCc2ccccc2C1` [Compound 10g, 5-Fluoro-3-{1-[5-(3,4-dihydro-1H-isoquinolin-2-yl)-5-oxopentan-1-yl]piperidin-4-yl}-1H-indole]: the inhibition at 0.05 µM was found to be 65%.
For `O=C(CCCN1CCC(c2c[nH]c3cccc(Cl)c23)CC1)N1CCc2ccccc2C1` [Compound 10d, 4-Chloro-3-{1-[4-(3,4-dihydro-1H-isoquinolin-2-yl)-4-oxobutan-1-yl]piperidin-4-yl}-1H-indole], the inhibition at 0.05 µM stood at 86%.
